The values below come from ChEMBL document CHEMBL6178023 (J Med Chem, 2025).

Data set [1] addresses Polyprotein P1234 (Chikungunya virus (strain S27-African prototype) (CHIKV)) (UniProt Q8JUX6). Kind of data set: (§1) Inhibition of N-terminal 6-His/SUMO-tagged CHIKV 181/25 nsP2 extracted from Escherichia coli Rosetta 2 assessed as decrease in nsP2 helicase activity in presence of RNA duplex composed of 39mer loading RNA strand/19mer displaced RNA strand by gel electrophoresis. The note with it: dose 0.01-100 µM.
Target sequence in this assay (Q8JUX6 536-1333 limits assumed): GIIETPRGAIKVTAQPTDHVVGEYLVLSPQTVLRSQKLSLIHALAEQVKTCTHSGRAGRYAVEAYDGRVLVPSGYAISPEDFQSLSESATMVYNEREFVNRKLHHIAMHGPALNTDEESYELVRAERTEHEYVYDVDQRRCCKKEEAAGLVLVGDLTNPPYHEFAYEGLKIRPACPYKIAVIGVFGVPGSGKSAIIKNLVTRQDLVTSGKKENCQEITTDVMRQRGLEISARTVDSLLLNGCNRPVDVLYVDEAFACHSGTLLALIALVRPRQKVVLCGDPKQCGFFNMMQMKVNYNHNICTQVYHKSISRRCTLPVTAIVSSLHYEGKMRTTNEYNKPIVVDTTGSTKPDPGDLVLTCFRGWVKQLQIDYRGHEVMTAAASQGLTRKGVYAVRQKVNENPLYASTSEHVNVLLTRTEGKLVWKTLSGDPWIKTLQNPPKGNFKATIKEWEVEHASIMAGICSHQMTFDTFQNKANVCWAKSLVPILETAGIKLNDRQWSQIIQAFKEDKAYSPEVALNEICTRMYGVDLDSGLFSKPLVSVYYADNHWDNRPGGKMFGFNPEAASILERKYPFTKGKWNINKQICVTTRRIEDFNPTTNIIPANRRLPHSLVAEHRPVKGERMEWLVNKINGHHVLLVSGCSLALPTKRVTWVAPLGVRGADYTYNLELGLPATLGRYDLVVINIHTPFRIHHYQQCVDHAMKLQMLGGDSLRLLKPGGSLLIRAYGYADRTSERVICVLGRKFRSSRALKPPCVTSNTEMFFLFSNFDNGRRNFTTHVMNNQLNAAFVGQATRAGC

Data set [2] addresses T1, Polyprotein P1234 (Chikungunya virus (strain S27-African prototype) (CHIKV), UniProt Q8JUX6). The data set is described as §1.
Data set [3] relates to Chikungunya virus. As to the kind of experiment: Antiviral activity against CHIKV 181/25 expressing nLuc-capsid gene infected in human MRC5 cells assessed as reduction in viral replication preincubated with cells for 1 hr followed by viral infection measured after 6 hrs post-infection by Nano-glo luciferase assay. In kind it is functional, organism-based. The note with it: 181/25, MRC5, read-out: pEC50 (converted).

Data set [4] has as its target Polyprotein P1234 (Chikungunya virus (strain S27-African prototype) (CHIKV)) (UniProt Q8JUX6). As to the kind of experiment: Binding affinity to N-terminal 6-His/SUMO-tagged CHIKV 181/25 nsP2 extracted from Escherichia coli Rosetta 2 assessed as unchanged Km up to 2.5 uM in presence of [alpha-32P]-ATP by TLC method.
Target sequence in this assay (Q8JUX6 whole entry): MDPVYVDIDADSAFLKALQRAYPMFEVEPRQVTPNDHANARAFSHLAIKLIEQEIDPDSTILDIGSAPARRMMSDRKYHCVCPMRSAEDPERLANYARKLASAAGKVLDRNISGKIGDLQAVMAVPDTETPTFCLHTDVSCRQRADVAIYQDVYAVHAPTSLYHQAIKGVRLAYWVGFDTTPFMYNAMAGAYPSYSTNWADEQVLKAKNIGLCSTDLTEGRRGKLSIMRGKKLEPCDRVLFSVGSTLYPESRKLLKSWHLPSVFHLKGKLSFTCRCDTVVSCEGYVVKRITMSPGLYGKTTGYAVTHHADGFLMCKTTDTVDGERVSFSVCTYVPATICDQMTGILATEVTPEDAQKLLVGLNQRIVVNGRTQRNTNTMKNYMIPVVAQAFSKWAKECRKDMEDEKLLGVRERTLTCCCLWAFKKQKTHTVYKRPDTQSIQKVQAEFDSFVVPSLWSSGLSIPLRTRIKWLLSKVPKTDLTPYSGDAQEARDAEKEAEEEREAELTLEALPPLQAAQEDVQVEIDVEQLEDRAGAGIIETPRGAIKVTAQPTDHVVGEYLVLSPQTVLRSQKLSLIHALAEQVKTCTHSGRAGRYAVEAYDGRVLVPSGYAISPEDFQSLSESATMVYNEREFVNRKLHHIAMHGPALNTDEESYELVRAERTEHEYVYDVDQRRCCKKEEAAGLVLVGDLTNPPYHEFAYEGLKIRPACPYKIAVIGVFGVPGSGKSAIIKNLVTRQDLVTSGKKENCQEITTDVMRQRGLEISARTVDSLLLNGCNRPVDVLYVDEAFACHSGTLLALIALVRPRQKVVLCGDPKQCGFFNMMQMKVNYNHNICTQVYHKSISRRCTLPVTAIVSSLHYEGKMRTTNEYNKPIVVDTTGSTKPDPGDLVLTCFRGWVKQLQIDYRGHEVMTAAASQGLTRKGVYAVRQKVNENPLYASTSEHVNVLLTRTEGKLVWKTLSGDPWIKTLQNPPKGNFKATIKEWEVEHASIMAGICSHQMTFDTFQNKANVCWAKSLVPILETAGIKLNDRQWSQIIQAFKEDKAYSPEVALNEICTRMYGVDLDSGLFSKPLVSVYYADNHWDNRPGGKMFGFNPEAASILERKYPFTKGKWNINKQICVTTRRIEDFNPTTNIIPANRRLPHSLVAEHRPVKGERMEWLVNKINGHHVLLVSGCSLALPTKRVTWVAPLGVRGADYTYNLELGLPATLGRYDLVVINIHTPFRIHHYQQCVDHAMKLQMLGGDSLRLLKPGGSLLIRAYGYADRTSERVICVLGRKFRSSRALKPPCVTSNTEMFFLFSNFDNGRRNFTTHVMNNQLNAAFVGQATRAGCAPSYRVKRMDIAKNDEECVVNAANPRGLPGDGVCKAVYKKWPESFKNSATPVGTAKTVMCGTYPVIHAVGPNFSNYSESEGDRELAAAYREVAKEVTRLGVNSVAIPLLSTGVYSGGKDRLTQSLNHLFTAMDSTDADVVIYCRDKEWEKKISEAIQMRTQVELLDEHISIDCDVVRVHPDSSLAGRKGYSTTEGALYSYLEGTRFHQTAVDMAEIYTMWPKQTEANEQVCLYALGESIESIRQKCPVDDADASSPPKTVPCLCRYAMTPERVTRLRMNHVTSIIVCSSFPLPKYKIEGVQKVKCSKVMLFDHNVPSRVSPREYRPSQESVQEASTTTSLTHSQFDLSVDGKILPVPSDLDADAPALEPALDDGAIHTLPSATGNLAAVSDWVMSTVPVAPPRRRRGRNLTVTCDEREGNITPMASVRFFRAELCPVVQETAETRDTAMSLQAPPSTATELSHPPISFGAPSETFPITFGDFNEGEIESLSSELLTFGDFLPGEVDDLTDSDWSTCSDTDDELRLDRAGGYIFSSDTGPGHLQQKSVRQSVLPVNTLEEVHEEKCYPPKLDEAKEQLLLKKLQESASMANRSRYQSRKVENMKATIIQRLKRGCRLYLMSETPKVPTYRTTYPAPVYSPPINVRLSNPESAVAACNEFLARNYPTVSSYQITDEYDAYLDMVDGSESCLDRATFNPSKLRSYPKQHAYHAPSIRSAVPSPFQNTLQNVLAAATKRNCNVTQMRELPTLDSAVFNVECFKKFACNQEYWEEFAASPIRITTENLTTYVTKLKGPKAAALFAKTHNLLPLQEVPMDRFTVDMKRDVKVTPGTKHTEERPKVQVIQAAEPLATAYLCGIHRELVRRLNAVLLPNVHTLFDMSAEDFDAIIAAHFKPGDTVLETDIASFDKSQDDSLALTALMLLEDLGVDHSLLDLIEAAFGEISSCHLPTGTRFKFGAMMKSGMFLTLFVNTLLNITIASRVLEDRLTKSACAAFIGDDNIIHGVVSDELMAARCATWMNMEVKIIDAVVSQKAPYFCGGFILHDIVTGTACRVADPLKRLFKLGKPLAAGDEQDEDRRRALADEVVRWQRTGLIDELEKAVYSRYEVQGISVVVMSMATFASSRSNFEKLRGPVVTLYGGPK
The target is the same in data set [5]. As to the kind of experiment: Binding affinity to N-terminal 6-His/SUMO-tagged CHIKV 181/25 nsP2 extracted from Escherichia coli Rosetta 2 using fluorescein-labeled dsRNA template incubated for 30 mins by fluorescence polarization assay.
Target sequence in this assay (Q8JUX6 whole entry): as above
Data set [6] deals with T1, Polyprotein P1234. Kind of data set: Inhibition of N-terminal 6-His/SUMO-tagged CHIKV 181/25 nsP2 extracted from Escherichia coli Rosetta 2 preincubated for 30 mins followed by ATP addition measured after 1 hr by ADP-Glo assay.
Data set [7] has as its system Chikungunya virus. Kind of data set: Anti-viral activity against CHIKV infected in human NHDF cells assessed as reduction in viral titer incubated with cells for 1 hr followed by viral infection for 2 hrs and subsequent replacement of fresh media with compound measured after 24 hrs post-infection by extracting viral supernatant from cells and transferring supernatant to African geen monkey Vero cells for measuring plaque formation. In kind it is functional, organism-based. The conditions noted are these: dose 0.01-100 µM, time 25.0 hrs.

Data set [8] concerns MRC5. Kind of data set: Cytotoxicity against human MRC5 cells at 10 to 40 uM by Cell Titer Glo assay. Format: toxicity, cell-based. The note with it: mrc5, 40 µM, dose 10-40 µM.
Data set [9] concerns the target Polyprotein P1234 (Chikungunya virus (strain S27-African prototype) (CHIKV)) (UniProt Q8JUX6). As to the kind of experiment: Inhibition of N-terminal 6-His/SUMO-tagged CHIKV 181/25 nsP2 extracted from Escherichia coli Rosetta 2 assessed as decrease in nsP2 ATPase activity up to 100 uM measured for 5 to 10 mins in presence of [alpha-32P]-ATP by TLC method. The note with it: time 5-10 min.
Target sequence in this assay (Q8JUX6 whole entry): as above

The subject of data set [10] is Mayaro virus. Kind of data set: Anti-viral activity against MAYV infected in human NHDF cells assessed as reduction in viral titer incubated with cells for 1 hr followed by viral infection for 2 hrs and subsequent replacement of fresh media with compound measured after 24 hrs post-infection by extracting viral supernatant from cells and transferring supernatant to African geen monkey Vero cells for measuring plaque formation. In kind it is functional, organism-based. The note with it: dose 0.01-100 µM, time 25.0 hrs.

A short description of data set [11]: Aqueous solubility of compound in PBS at pH 7.4. Format: physicochemical.
Data set [12] addresses Polyprotein P1234 (Chikungunya virus (strain S27-African prototype) (CHIKV)) (UniProt Q8JUX6). Kind of data set: Binding affinity to N-terminal 6-His/SUMO-tagged CHIKV 181/25 nsP2 extracted from Escherichia coli Rosetta 2 assessed as decrease in Vmax up to 2.5 uM in presence of [alpha-32P]-ATP by TLC method.
Target sequence in this assay (Q8JUX6 whole entry): as above
Data set [13] concerns Mayaro virus. Kind of data set: Anti-viral activity against MAYV infected in human NHDF cells assessed as log reduction in viral titer at 0.01 to 100 uM incubated with cells for 1 hr followed by viral infection for 2 hrs and subsequent replacement of fresh media with compound measured after 24 hrs post-infection by extracting viral supernatant from cells and transferring supernatant to African geen monkey Vero cells for measuring plaque formation. Format: functional. The conditions noted are these: dose 0.01-100 µM; time 25 hrs.

Data set [14] can be described thus: Aqueous solubility of compound. Format: physicochemical. The conditions noted are these: buffer.
Data set [15] in a line: Selectivity ratio of pEC50 for antiviral activity against VEEV expressing nLuc to pEC50 for antiviral activity against CHIKV 181/25 expressing nLuc-capsid gene infected in human MRC5 cells. Format: functional.
For data set [16], the system named is Chikungunya virus. Kind of data set: Inhibition of N-terminal 6-His/SUMO-tagged CHIKV 181/25 nsP2 extracted from Escherichia coli Rosetta 2 at 200 uM preincubated for 30 mins followed by ATP addition measured after 1 hr by ADP-Glo assay relative to control. The conditions noted are these: time 90.0 min.

Converted amounts (≈) assume the structure as drawn. The source made the active and inactive calls. The rule behind the calls is not given here. Bounds are passed on as bounds.

T1 sequence (Q8JUX6 536-1333 limits assumed): as the sequence (Q8JUX6 536-1333 limits assumed) above

For the compound `O=C(N1CCC2(CC1)CC(CN1CCCCS1(=O)=O)CCO2)C1(c2ccccc2)CCCC1` (stereo not given), the inhibition result is “Dose-dependent-effect” in [1] and “Active; Ic50 Of Compound Was Same At Both # And # Mins” in data set [9]. In addition, the IC50 in [2] was 0.9 µM; in data set [6], 0.501 µM. Further, the EC50 in data set [3] is 0.126 µM. Besides, the result in data set [4] and in data set [12] was Active. Moreover, the Activity entry in [5] is “Active; Compound Did Not Involve Direct Displacement Of Rna Substrate Suggesting Allosteric Mechanism Of Helicase Inhibition”; in data set [7], “Dose-dependent-effect”; in data set [8], “Non-toxic”; in data set [10], “Dose-dependent-effect”; in data set [13], 0.01 10^5No_unit. Besides, in [11], the kinetic solubility is over 220 µM.

`Cc1ccnc(OC2CCOC3(CCN(C(=O)C4(c5ccccc5)CCCC4)CC3)C2)c1` (stereo not given): the EC50 in data set [3] was 12.6 µM. In addition, the IC50 in data set [6] was over 39.8 µM. Also, in data set [8], the Activity entry is recorded as “Non-toxic”. In [14], the solubility was 14 µM (≈ 6.08 µg/mL). In data set [15], the Ratio is listed as 10. For the same compound, the inhibition in data set [16] turned out to be 40%.

On to `CS(=O)(=O)NCC1CCOC2(CCN(C(=O)C3(c4ccccc4)CCCC3)CC2)C1` (stereo not given), for which, in [3], the EC50 is 3.16 µM. For the same compound, in [6], the IC50 was over 39.8 µM. Further, in data set [8], the Activity result is listed as “Non-toxic”. This compound also gave a solubility in [14] of 240 µM (≈ 104 µg/mL). In addition, the Ratio in data set [15] came to 10. This compound also showed an inhibition in data set [16] of 40%.
